Patent US20230159467A1, “NOVEL COMPOUNDS USEFUL IN THE TREATMENT AND/OR PREVENTION OF A DISEASE, DISORDER OR CONDITION ASSOCIATED WITH ANGIOTENSIN II” (Vicore Pharma AB, priority 2020, published 2023)
Values after ≈ are worked out from the molar mass of the structure shown.

Legend:
[1] = target: T1, human AT1R (Homo sapiens, UniProt P30556); format: binding; details: HEK-293 cell membranes
T1 construct: host or cells: HEK-293
T1 sequence (P30556 1-359): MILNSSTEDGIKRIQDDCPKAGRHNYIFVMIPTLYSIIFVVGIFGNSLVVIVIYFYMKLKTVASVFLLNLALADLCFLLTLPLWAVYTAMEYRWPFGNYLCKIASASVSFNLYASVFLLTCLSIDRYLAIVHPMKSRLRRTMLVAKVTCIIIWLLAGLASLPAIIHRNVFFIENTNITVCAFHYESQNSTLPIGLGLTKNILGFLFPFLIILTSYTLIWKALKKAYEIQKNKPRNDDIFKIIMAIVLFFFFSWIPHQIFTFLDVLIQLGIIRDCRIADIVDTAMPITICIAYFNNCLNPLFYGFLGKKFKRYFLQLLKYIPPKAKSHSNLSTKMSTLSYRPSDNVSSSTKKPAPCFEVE

[2] = Stability in human liver microsomes; format: in vitro ADME; details: half-life
Method in brief: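 Pooled liver microsomes (human mixed gender; male Sprague-Dawley rat; male CD-1 mouse) at final 0.1 mg/mL protein, compound 0.1 μM, 100 mM potassium phosphate pH 7.4, NADPH-initiated, sampled 0–60 min. Parent remaining by HPLC-MS/MS vs time zero; half-life from log-linear slope assuming first-order kinetics, plus Clint.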

[3] = Kinetic solubility in PBS pH 7.4; format: physicochemical; details: Dulbecco's PBS buffer, aqueous buffer, kinetic from dmso stock; PBS pH 7.4, 24 h room temperature, 2% DMSO
Procedure: Kinetic solubility. Dulbecco's PBS buffer was used (NaCl 137 mM, KCl 2.7 mM, Na2HPO4 8.1 mM, KH2PO4 1.5 mM with pH 7.4). The test compound is prepared at 200 μM in the PBS buffer from a 10 mM DMSO stock solution. The final DMSO concentration is 2%. The buffer samples were mixed thoroughly followed by incubation at room temperature for 24 h. At the end of the incubation, the buffer samples were centrifuged and supernatants were then injected for the HPLC analysis. A calibration standard of the test compound was prepared at 200 μM in methanol/water (3/2, v/v) from a 10 mM DMSO stock solution on the day of HPLC analysis. The analysis was conducted by HPLC-UV/VIS with photodiode array detection, with monitoring at 205, 230, 260, and 300 nm wavelengths. The HPLC system consisted of a C18 column using a gradient of A and B (A=12 mM ammonium formate, 6 mM formic acid in water, pH 4.0, B=6 mM ammonium formate, 3 mM formic acid acetonitrile/water (9/1, v/v)). Reference compounds used were metoprolol, rifampicin, ketoconazole, phenytoin, haloperidol, simvastatin, diethylstilbestrol, and tamoxifen, ranking from fully soluble (200 μM) to poorly soluble (<1μM). […] The range of the assay was approximately 0.5 μM to 200 μM. The chromatographic purity (%) was determined as the peak area of the principal peak relative to the total integrated peak areas in the HPLC chromatogram of the calibration standard.

[4] = target: T2, CYP2C8 (Homo sapiens, UniProt P10632); assay: CYP450 inhibition assay, pooled human liver microsomes, amodiaquine substrate; details: for inhibition at 10 min, 10 µM: both, human, pooled human liver microsomes, pH 7.4, probe amodiaquine; for CYP 450 Inhibition CYP2C8: at 10 μM
T2 sequence (P10632 1-490): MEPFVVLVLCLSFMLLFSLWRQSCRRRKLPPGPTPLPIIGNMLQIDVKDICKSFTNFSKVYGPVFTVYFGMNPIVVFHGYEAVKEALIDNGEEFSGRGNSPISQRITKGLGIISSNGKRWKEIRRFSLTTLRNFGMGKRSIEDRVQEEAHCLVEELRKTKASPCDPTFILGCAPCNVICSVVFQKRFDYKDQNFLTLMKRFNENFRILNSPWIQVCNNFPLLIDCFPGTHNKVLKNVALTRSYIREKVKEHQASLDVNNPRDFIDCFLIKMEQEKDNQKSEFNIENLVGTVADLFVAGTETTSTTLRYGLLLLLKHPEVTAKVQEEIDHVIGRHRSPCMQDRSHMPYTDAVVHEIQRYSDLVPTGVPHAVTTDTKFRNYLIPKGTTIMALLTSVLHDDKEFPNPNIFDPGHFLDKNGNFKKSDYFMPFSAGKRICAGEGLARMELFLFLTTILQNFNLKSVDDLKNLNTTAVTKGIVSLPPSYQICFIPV

[5] = target: CYP2C9 (Homo sapiens, UniProt P11712); assay: CYP450 inhibition assay, pooled human liver microsomes, diclofenac substrate; details: for inhibition at 10 min, 10 µM: both, human, pooled human liver microsomes, pH 7.4, probe diclofenac; for CYP 450 Inhibition CYP2C9: at 10 μM
[6] = Stability in rat liver microsomes; format: in vitro ADME; details: half-life
Procedure: Stability in liver microsomes. Human, mouse and rat liver microsomes were used to assess the metabolic stability for the compounds. Metabolic stability was determined in 0.5 mg/mL human, mouse or rat liver microsomes at a compound concentration of 1 μM in 100 mM potassium phosphate buffer (pH 7.4) in a total incubation volume of 500 μL by Eurofins. The assay matrix was: human liver microsomes: mixed gender and pool of 50, rat liver microsomes: male, Sprague-Dawley, pool of 100 or more and mouse liver microsomes: male,CD-1, pool of 250 or more. Final microsomal protein concentration: 0.1mg/mL. The test concentration was 0.1 μM with 0.01% DMSO, 0.25% acetonitrile and 0.25% methanol by default. […] The reaction was initiated by adding NADPH-generating system and was incubated for 0, 15, 30, 45, and 60 min. The reaction was stopped by transferring the incubation mixture to acetonitrile/methanol. Samples were then mixed and centrifuged. Four reference compounds were tested in each assay. Propranolol and imipramine are relatively stable, whereas verapamil and terfenadine are readily metabolized inhuman liver microsomes. Samples were analyzed by HPLC-MS/MS using selected reaction monitoring. The HPLC system consisted of a binary LC pump with autosampler, a C-18 column, and a gradient. Peak areas corresponding to the test compound were recorded. The compound remaining was calculated by comparing the peak area at each time point to time zero. The half-life was calculated from the slope of the initial linear range of the logarithmic curve of compound remaining (%) vs. time, assuming first order kinetics. In addition, the intrinsic clearance (Clint) was calculated.^19,20

[7] = target: T3, human AT2R (Homo sapiens, UniProt P50052); format: binding; details: HEK-293 cell membranes
T3 construct: host or cells: HEK-293
T3 sequence (P50052 1-363): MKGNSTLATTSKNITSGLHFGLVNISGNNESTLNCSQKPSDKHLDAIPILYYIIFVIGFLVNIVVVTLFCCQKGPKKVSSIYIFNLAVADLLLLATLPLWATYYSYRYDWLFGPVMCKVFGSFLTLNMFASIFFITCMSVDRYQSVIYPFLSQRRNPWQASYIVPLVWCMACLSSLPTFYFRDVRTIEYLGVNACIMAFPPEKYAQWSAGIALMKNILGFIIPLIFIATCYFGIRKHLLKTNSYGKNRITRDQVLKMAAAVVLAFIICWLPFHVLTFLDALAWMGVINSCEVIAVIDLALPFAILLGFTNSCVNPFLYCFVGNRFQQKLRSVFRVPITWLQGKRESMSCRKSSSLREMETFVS

CYP2C9, sequence (P11712 whole entry): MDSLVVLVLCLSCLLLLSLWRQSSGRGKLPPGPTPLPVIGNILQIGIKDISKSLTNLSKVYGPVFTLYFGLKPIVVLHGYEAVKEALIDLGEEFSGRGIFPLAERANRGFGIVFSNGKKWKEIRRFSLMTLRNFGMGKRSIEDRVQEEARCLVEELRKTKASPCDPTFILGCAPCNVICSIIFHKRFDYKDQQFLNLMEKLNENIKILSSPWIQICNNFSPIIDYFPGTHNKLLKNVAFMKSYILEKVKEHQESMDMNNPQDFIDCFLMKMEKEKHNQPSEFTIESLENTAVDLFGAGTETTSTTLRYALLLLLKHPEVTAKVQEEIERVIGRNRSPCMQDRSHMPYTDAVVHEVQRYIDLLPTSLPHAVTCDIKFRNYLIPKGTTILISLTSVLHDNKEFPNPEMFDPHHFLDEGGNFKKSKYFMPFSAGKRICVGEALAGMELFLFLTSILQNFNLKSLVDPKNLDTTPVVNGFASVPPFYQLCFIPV

SMILES | Ki [1] [µM] | Stability in liver microsomes HLM [2] [min] | solubility kinetic at 24 h [3] [µM] | inhibition at 10 min, 10 µM [4] [%] | inhibition at 10 min, 10 µM [5] [%] | Stability in liver microsomes RLM [6] [min] | Ki [7] [µM] | CYP 450 Inhibition CYP2C8 [4] [%] | CYP 450 Inhibition CYP2C9 [5] [%]
CCCCOC(=O)[N-]S(=O)(=O)c1sc(CC(C)C)cc1-c1ccc(Cn2ccnc2C(C)(C)C)cc1.[K+] [Example 11B, Potassium (butoxycarbonyl)((3-(4-((2-(tert-butyl)-1H-imidazol-1-yl)methyl)phenyl)-5-isobutylthiophen-2-yl)sulfonyl)amide] | ~1 | 11 | > 200 | 81 | 88 | 18 | 0.0066 |  | 
COC(=O)NS(=O)(=O)c1ccc(CC(C)C)cc1-c1ccc(Cn2ccnc2C(C)(C)C)cc1 [Example 1A, Methyl ((4′-((2-(tert-butyl)-1H-imidazol-1-yl)methyl)-5-isobutyl-[1,1′-biphenyl]-2-yl)sulfonyl)carbamate] | ~1 | >60 | 140 (≈ 67.7 µg/mL) | 67 | 37 | >60 | 0.0011 |  | 
CCCCOC(=O)NS(=O)(=O)c1sc(CC(C)C)nc1-c1ccc(Cn2ccnc2C(C)(C)C)cc1 [Example 4, Butyl ((4-(4-((2-(tert-butyl)-1H-imidazol-1-yl)methyl)phenyl)-2-isobutylthiazol-5-yl)sulfonyl) carbamate] | ~1 | 45 | 180 (≈ 95.9 µg/mL) |  |  | 12 | 0.018 | 70 | 68

Other lines, results leading:

Ki [1] [µM] | Stability in liver microsomes HLM [2] [min] | solubility kinetic at 24 h [3] [µM] | inhibition at 10 min, 10 µM [4] [%] | inhibition at 10 min, 10 µM [5] [%] | Stability in liver microsomes RLM [6] [min] | Ki [7] [µM] | CYP 450 Inhibition CYP2C8 [4] [%] | CYP 450 Inhibition CYP2C9 [5] [%] | SMILES
~1 | >60 | 195 (≈ 95.7 µg/mL) |  |  | >60 | 0.029 | 26 | 23 | COC(=O)NS(=O)(=O)c1sc(CC(C)C)nc1-c1ccc(Cn2ccnc2C(C)(C)C)cc1 [Example 3, Methyl ((4-(4-((2-(tert-butyl)-1H-imidazol-1-yl)methyl)phenyl)-2-isobutylthiazol-5-yl)sulfonyl) carbamate]
~1 | >60 | > 200 | 64 | 92 | 41 | 0.0032 |  |  | COC(=O)[N-]S(=O)(=O)c1ccc(CC(C)C)cc1-c1ccc(Cn2ccnc2C(C)(C)O)cc1.[K+] [Example 8B, Potassium ((4′-((2-(2-hydroxypropan-2-yl)-1H-imidazol-1-yl)methyl)-5-isobutyl-[1,1′-biphenyl]-2-yl)sulfonyl)(methoxycarbonyl)amide]
